Experimental data as given in patent publication US20100035866A1, “NOVEL SUBSTITUTED-1, 1-DIOXO-BENZO[1,2,4]THIADIAZIN-3ONES, PREPARATION METHOD THEREOF, AND PHARMACEUTICAL COMPOSITION CONTAINING THE SAME” (KOREA RESEARCH INSTITUTE OF CHEMICAL TECHNOLOGY, priority 2006, published 2010).
Where two headings read alike, the source gives them in different places.

Legend:
[1] = molecular target: Human serotonin 5-HT6 receptor (Homo sapiens, UniProt P50406); test: [3H]LSD binding assay on cloned 5-HT6 receptor
[2] = IC50 (nM), binding affinity to the 5-HT6 receptor, Table 2, 1.87 nM [3H]LSD, cloned human receptor membranes from Sf21 cells, 37° C. 60 min

Human serotonin 5-HT6 receptor, sequence (P50406 whole entry): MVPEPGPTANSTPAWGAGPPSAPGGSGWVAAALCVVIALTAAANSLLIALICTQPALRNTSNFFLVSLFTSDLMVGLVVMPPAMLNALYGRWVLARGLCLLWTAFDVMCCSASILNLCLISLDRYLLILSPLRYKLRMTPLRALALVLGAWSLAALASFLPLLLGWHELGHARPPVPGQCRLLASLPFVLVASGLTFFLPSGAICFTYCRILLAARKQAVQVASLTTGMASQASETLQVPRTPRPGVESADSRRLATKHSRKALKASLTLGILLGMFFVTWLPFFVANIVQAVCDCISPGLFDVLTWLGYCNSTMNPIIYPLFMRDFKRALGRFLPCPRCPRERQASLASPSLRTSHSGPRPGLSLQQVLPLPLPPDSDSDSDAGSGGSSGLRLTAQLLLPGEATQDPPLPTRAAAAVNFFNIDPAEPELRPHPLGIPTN

| melting point [°C] | IC50 [1, 2] [nM] | SMILES | IC50 [1] [nM] |
| --- | --- | --- | --- |
| 112 to 113 | 5.4 | CN1CCN(c2cc(Cl)cc3c2S(=O)(=O)N(Cc2ccc(F)cc2)C(=O)N3Cc2ccccc2)CC1 [Example 4, 4-Benzyl-6-chloro-2-(4-fluoro-benzyl)-8-(4-methyl-piperazin-1-yl)-1,1-dioxo-1,4-dihydro-2H-1λ^6-benzo[1,2,4]thiadiazin-3-one] |  |
| 87 to 88 | 5.2 | CN1CCN(c2cc(Cl)cc3c2S(=O)(=O)N(Cc2cccc(Cl)c2)C(=O)N3Cc2ccccc2)CC1 [Example 6, 4-Benzyl-6-chloro-2-(3-chloro-benzyl)-8-(4-methyl-piperazin-1-yl)-1,1-dioxo-1,4-dihydro-2H-1λ^6-benzo[1,2,4]thiadiazin-3-one] |  |
| 107 to 109 | 8.9 | CN1CCN(c2cc(Cl)cc3c2S(=O)(=O)N(Cc2ccccc2Br)C(=O)N3Cc2ccccc2)CC1 [Example 8, 4-Benzyl-2-(2-bromo-benzyl)-6-chloro-8-(4-methyl-piperazin-1-yl)-1,1-dioxo-1,4-dihydro-2H-1λ^6-benzo[1,2,4]thiadiazin-3-one] |  |
| 96 to 98 | 2.2 | CN1CCN(c2cc(Cl)cc3c2S(=O)(=O)N(Cc2cccc(Br)c2)C(=O)N3Cc2ccccc2)CC1 [Example 9, 4-Benzyl-2-(3-bromo-benzyl)-6-chloro-8-(4-methyl-piperazin-1-yl)-1,1-dioxo-1,4-dihydro-2H-1λ^6-benzo[1,2,4]thiadiazin-3-one] |  |
| 115 to 116 | 6.1 | CN1CCN(c2cc(Cl)cc3c2S(=O)(=O)N(Cc2ccc(Br)cc2)C(=O)N3Cc2ccccc2)CC1 [Example 10, 4-Benzyl-2-(4-bromo-benzyl)-6-chloro-8-(4-methyl-piperazin-1-yl)-1,1-dioxo-1,4-dihydro-2H-1λ^6-benzo[1,2,4]thiadiazin-3-one] |  |
| 96 to 98 | 4.4 | CN1CCN(c2cc(Cl)cc3c2S(=O)(=O)N(Cc2cccc(I)c2)C(=O)N3Cc2ccccc2)CC1 [Example 11, 4-Benzyl-6-chloro-2-(3-iodo-benzyl)-8-(4-methyl-piperazin-1-yl)-1,1-dioxo-1,4-dihydro-2H-1λ^6-benzo[1,2,4]thiadiazin-3-one] |  |
| 110 to 111 | 1.4 | CN1CCN(c2cc(Cl)cc3c2S(=O)(=O)N(Cc2ccc(I)cc2)C(=O)N3Cc2ccccc2)CC1 [Example 12, 4-Benzyl-6-chloro-2-(4-iodo-benzyl)-8-(4-methyl-piperazin-1-yl)-1,1-dioxo-1,4-dihydro-2H-1λ^6-benzo[1,2,4]thiadiazin-3-one] |  |
| 148 to 150 | 1.6 | Cc1ccccc1CN1C(=O)N(Cc2ccccc2)c2cc(Cl)cc(N3CCN(C)CC3)c2S1(=O)=O [Example 13, 4-Benzyl-6-chloro-2-(2-methyl-benzyl)-8-(4-methyl-piperazin-1-yl)-1,1-dioxo-1,4-dihydro-2H-1λ^6-benzo[1,2,4]thiadiazin-3-one] |  |
| 188 to 191 | 11.6 | Cc1cccc(CN2C(=O)N(Cc3ccccc3)c3cc(Cl)cc(N4CCN(C)CC4)c3S2(=O)=O)c1 [Example 14, 4-Benzyl-6-chloro-2-(3-methyl-benzyl)-8-(4-methyl-piperazin-1-yl)-1,1-dioxo-1,4-dihydro-2H-1λ^6-benzo[1,2,4]thiadiazin-3-one] |  |
| 180 to 185 | 5.4 | Cc1ccc(CN2C(=O)N(Cc3ccccc3)c3cc(Cl)cc(N4CCN(C)CC4)c3S2(=O)=O)cc1 [Example 15, 4-Benzyl-6-chloro-2-(4-methyl-benzyl)-8-(4-methyl-piperazin-1-yl)-1,1-dioxo-1,4-dihydro-2H-1λ^6-benzo[1,2,4]thiadiazin-3-one] |  |
| 93 to 94 | 4.6 | COc1ccccc1CN1C(=O)N(Cc2ccccc2)c2cc(Cl)cc(N3CCN(C)CC3)c2S1(=O)=O [Example 16, 4-Benzyl-6-chloro-2-(2-methoxy-benzyl)-8-(4-methyl-piperazin-1-yl)-1,1-dioxo-1,4-dihydro-2H-1λ^6-benzo[1,2,4]thiadiazin-3-one] |  |
| 84 to 86 | 12.3 | CN1CCN(c2cc(Cl)cc3c2S(=O)(=O)N(Cc2ccccc2[N+](=O)[O-])C(=O)N3Cc2ccccc2)CC1 [Example 20, 4-Benzyl-6-chloro-8-(4-methyl-piperazin-1-yl)-2-(2-nitro-benzyl)-1,1-dioxo-1,4-dihydro-2H-1λ^6-benzo[1,2,4]thiadiazin-3-one] |  |
| 172 to 175 | 4.2 | CN1CCN(c2cc(Cl)cc3c2S(=O)(=O)N(Cc2cccc([N+](=O)[O-])c2)C(=O)N3Cc2ccccc2)CC1 [Example 21, 4-Benzyl-6-chloro-8-(4-methyl-piperazin-1-yl)-2-(3-nitro-benzyl)-1,1-dioxo-1,4-dihydro-2H-1λ^6-benzo[1,2,4]thiadiazin-3-one] |  |
| 163 to 164 | 8.1 | CN1CCN(c2cc(Cl)cc3c2S(=O)(=O)N(Cc2ccc([N+](=O)[O-])cc2)C(=O)N3Cc2ccccc2)CC1 [Example 22, 4-Benzyl-6-chloro-8-(4-methyl-piperazin-1-yl)-2-(4-nitro-benzyl)-1,1-dioxo-1,4-dihydro-2H-1λ^6-benzo[1,2,4]thiadiazin-3-one] |  |
| 140 to 143 | 28.8 | COC(=O)c1ccc(CN2C(=O)N(Cc3ccccc3)c3cc(Cl)cc(N4CCN(C)CC4)c3S2(=O)=O)cc1 [Example 23, 4-[4-Benzyl-6-chloro-8-(4-methyl-piperazin-1-yl)-1,1,3-trioxo-3,4-dihydro-1H-1λ^6-benzo[1,2,4]thiadiazin-2-ylmethyl]-benzoic acid methyl ester] |  |
| 134 to 135 | 6.4 | CN1CCN(c2cc(Cl)cc3c2S(=O)(=O)N(Cc2ccc(C#N)cc2)C(=O)N3Cc2ccccc2)CC1 [Example 24, 4-[4-Benzyl-6-chloro-8-(4-methyl-piperazin-1-yl)-1,1,3-trioxo-3,4-dihydro-2H-1λ^6-benzo[1,2,4]thiadiazin-2-ylmethyl]-benzonitrile] |  |
| 119 to 120 | 7.1 | COc1ccccc1N1C(=O)N(Cc2ccccc2)c2cc(Cl)cc(N3CCN(C)CC3)c2S1(=O)=O [Example 28, 4-Benzyl-6-chloro-2-(2-methoxy-phenyl)-8-(4-methyl-piperazin-1-yl)-1,1-dioxo-1,4-dihydro-2H-1λ^6-benzo[1,2,4]thiadiazin-3-one] |  |
| 191 to 193 | 1.7 | COc1cccc(N2C(=O)N(Cc3ccccc3)c3cc(Cl)cc(N4CCN(C)CC4)c3S2(=O)=O)c1 [Example 29, 4-Benzyl-6-chloro-2-(3-methoxy-phenyl)-8-(4-methyl-piperazin-1-yl)-1,1-dioxo-1,4-dihydro-2H-1λ^6-benzo[1,2,4]thiadiazin-3-one] |  |
| 115 to 116 | 5.2 | COc1ccc(N2C(=O)N(Cc3ccccc3)c3cc(Cl)cc(N4CCN(C)CC4)c3S2(=O)=O)cc1 [Example 30, 4-Benzyl-6-chloro-2-(4-methoxy-phenyl)-8-(4-methyl-piperazin-1-yl)-1,1-dioxo-1,4-dihydro-2H-1λ^6-benzo[1,2,4]thiadiazin-3-one] |  |
|  |  | CN1CCN(c2cc(Cl)cc3c2S(=O)(=O)N(C)C(=O)N3C)CC1 [Example 31, 6-Chloro-2,4-dimethyl-8-(4-methyl-piperazin-1-yl)-1,1-dioxo-1,4-dihydro-2H-1λ^6-benzo[1,2,4]thiadiazin-3-one] | 745 |
|  | 4.2 | CN1CCN(c2cc(Cl)cc3c2S(=O)(=O)N(C)C(=O)N3Cc2ccccc2)CC1 [Example 32, 4-Benzyl-6-chloro-2-methyl-8-(4-methyl-piperazin-1-yl)-1,1-dioxo-1,4-dihydro-2H-1λ^6-benzo[1,2,4]thiadiazin-3-one] |  |
| 116 to 118 | 1.9 | CCCCN1C(=O)N(Cc2ccccc2)c2cc(Cl)cc(N3CCN(C)CC3)c2S1(=O)=O [Example 35, 4-Benzyl-2-butyl-6-chloro-8-(4-methyl-piperazin-1-yl)-1,1-dioxo-1,4-dihydro-2H-1λ^6-benzo[1,2,4]thiadiazin-3-one] |  |
| 155 to 158 | 1.5 | CN1CCN(c2cc(Cl)cc3c2S(=O)(=O)N(CC2CCCCC2)C(=O)N3Cc2ccccc2)CC1 [Example 36, 4-Benzyl-6-chloro-2-cyclohexylmethyl-8-(4-methyl-piperazin-1-yl)-1,1-dioxo-1,4-dihydro-2H-1λ^6-benzo[1,2,4]thiadiazin-3-one] |  |
|  | 4.5 | CCCCCCCCCCN1C(=O)N(Cc2ccccc2)c2cc(Cl)cc(N3CCN(C)CC3)c2S1(=O)=O [Example 40, 4-Benzyl-6-chloro-2-decyl-8-(4-methyl-piperazin-1-yl)-1,1-dioxo-1,4-dihydro-2H-1λ^6-benzo[1,2,4]thiadiazin-3-one] |  |
| 154 to 155 |  | O=C1N(Cc2ccccc2)c2cc(Cl)cc(N3CCNCC3)c2S(=O)(=O)N1Cc1cccc(F)c1 [Example 46, 4-Benzyl-6-chloro-2-(3-fluoro-benzyl)-1,1-dioxo-8-piperazin-1-yl-1,4-dihydro-2H-1λ^6-benzo[1,2,4]thiadiazin-3-one] |  |
| 148 to 150 |  | CCCN1C(=O)N(Cc2ccccc2)c2cc(Cl)cc(N3CCNCC3)c2S1(=O)=O [Example 65, 4-Benzyl-6-chloro-2-propyl-1,1-dioxo-8-piperazin-1-yl-1,4-dihydro-2H-1λ^6-benzo[1,2,4]thiadiazin-3-one] |  |
|  | 3 | CCCCCCCCCCN1C(=O)N(Cc2ccccc2)c2cc(Cl)cc(N3CCNCC3)c2S1(=O)=O [Example 67, 4-Benzyl-6-chloro-2-decyl-1,1-dioxo-8-piperazin-1-yl-1,4-dihydro-2H-1λ^6-benzo[1,2,4]thiadiazin-3-one] |  |
| 114 to 116 |  | O=C1N(Cc2ccccc2)c2cc(Cl)cc(N3CCN4CCC[C@@H]4C3)c2S(=O)(=O)N1Cc1ccccc1Cl [Example 74, 4-Benzyl-6-chloro-2-(2-chloro-benzyl)-8-[(6R)-1,4-diazabicyclo[4.3.0]non-4-yl]-1,1-dioxo-1,4-dihydro-2H-1λ^6-benzo[1,2,4]thiadiazin-3-one] |  |
